system: HCT 116; assay: Antiproliferative activity assay (WST-8); format: cell-based; conditions: Homo sapiens, HCT-116, 96 h, read-out: HCT 116 IC50 (nM)
Description: Antiproliferative activity assay was carried out as follows. A single suspension of tumor cells was inoculated to the serially diluted 96-well microtestplate. Then the testplate was incubated in the 5% CO2 ambience at 37° C. for 4 days (2-3×10^3 cells/well). The degree of cell growth in a monolayer was measured by using WST-8 (Dojindo, Japan). IC50 values of drugs against tumor cells were calculated as the concentration of drug yielding 50% OD of the control growth.

| Compound | IC50 [nM] |
| --- | --- |
| CCNC(=O)Oc1cccc(CCNC(=O)C(C)C(SC)C2CCCN2C(=O)CC(OC)C(C(C)CC)N(C)C(=O)C(NC(=O)C(C(C)C)N(C)C)C(C)C)c1 (stereo not drawn) [Ethyl-carbamic acid 3-(2-{3-[1-(4-{[2-(2-dimethylamino-3-methyl-butyrylamino)-3-methyl-butyryl]-methyl-amino}-3-methoxy-5-methyl-heptanoyl)-pyrrolidin-2-yl]-2-methyl-3-methylsulfanyl-propionylamino}-ethyl)-phenyl ester] | 0.57 |

same assay, conditions: Homo sapiens, HCT-116, 96 h; incubated 4 days, WST-8; concentration of drug yielding 50% OD of the control growth; read-out: HCT 116 IC50

| Compound | IC50 [nM] |
| --- | --- |
| CCC(C)C(C(CC(=O)N1CCCC1C(CC(=O)NCCc1ccccc1)SCCOC(C)=O)OC)N(C)C(=O)C(NC(=O)C(C(C)C)N(C)C)C(C)C (stereo not drawn) [Acetic acid 2-{1-[1-(4-{[2-(2-dimethylamino-3-methyl-butyrylamino)-3-methyl-butyryl]-methyl-amino}-3-methoxy-5-methyl-heptanoyl)-pyrrolidin-2-yl]-2-phenethylcarbamoyl-ethylsulfanyl}-ethyl ester] | 0.19 |
| CCNC(=O)OCCSC(CC(=O)NCCc1ccccc1)C1CCCN1C(=O)CC(OC)C(C(C)CC)N(C)C(=O)C(NC(=O)C(C(C)C)N(C)C)C(C)C (stereo not drawn) [Ethyl-carbamic acid 2-{1-[1-(4-{[2-(2-dimethylamino-3-methyl-butyrylamino)-3-methyl-butyryl]-methyl-amino}-3-methoxy-5-methyl-heptanoyl)-pyrrolidin-2-yl]-2-phenethylcarbamoyl-ethylsulfanyl}-ethyl ester] | 0.97 |
| CCC(C)C(C(CC(=O)N1CCCC1C(CC(=O)NCCc1cccc(O)c1)SCC(=O)N(C)C)OC)N(C)C(=O)C(NC(=O)C(C(C)C)N(C)C)C(C)C (stereo not drawn) [N-(1-{[1-sec-Butyl-4-(2-{1-dimethylcarbamoylmethylsulfanyl-2-[2-(3-hydroxy-phenyl)-ethylcarbamoyl]-ethyl}-pyrrolidin-1-yl)-2-methoxy-4-oxo-butyl]-methyl-carbamoyl}-2-methyl-propyl)-2-dimethylamino-3-methyl-butyramide] | 1.8 |
| CCC(C)C(C(CC(=O)N1CCCC1C(CC(=O)NCCc1ccccc1O)SC)OC)N(C)C(=O)C(NC(=O)C(C(C)C)N(C)C)C(C)C (stereo not drawn) [N-(1-{[1-sec-Butyl-4-(2-{2-[2-(2-hydroxy-phenyl)-ethylcarbamoyl]-1-methylsulfanyl-ethyl}-pyrrolidin-1-yl)-2-methoxy-4-oxo-butyl]-methyl-carbamoyl}-2-methyl-propyl)-2-dimethylamino-3-methyl-butyramide] | 0.64 |
| CCC(C)C(C(CC(=O)N1CCCC1C(CC(=O)NCCc1ccc(OC)c(OC)c1)SC)OC)N(C)C(=O)C(NC(=O)C(C(C)C)N(C)C)C(C)C (stereo not drawn) [N-(1-{[1-sec-Butyl-4-(2-{2-[2-(3,4-dimethoxy-phenyl)-ethylcarbamoyl]-1-methylsulfanyl-ethyl}-pyrrolidin-1-yl)-2-methoxy-4-oxo-butyl]-methyl-carbamoyl}-2-methyl-propyl)-2-dimethylamino-3-methyl-butyramide] | 0.91 |
| CCC(C)C(C(CC(=O)N1CCCC1C(CC(=O)NCCc1cccc(O)c1)SC)OC)N(C)C(=O)C(NC(=O)C(C(C)C)N(C)C)C(C)C (stereo not drawn) [N-(1-{[1-sec-Butyl-4-(2-{2-[2-(3-hydroxy-phenyl)-ethylcarbamoyl]-1-methylsulfanyl-ethyl}-pyrrolidin-1-yl)-2-methoxy-4-oxo-butyl]-methyl-carbamoyl}-2-methyl-propyl)-2-dimethylamino-3-methyl-butyramide] | 0.26 |
| CCC(C)C(C(CC(=O)N1CCCC1C(CC(=O)NCCc1ccc(O)cc1)SC)OC)N(C)C(=O)C(NC(=O)C(C(C)C)N(C)C)C(C)C (stereo not drawn) [N-(1-{[1-sec-Butyl-4-(2-{2-[2-(4-hydroxy-phenyl)-ethylcarbamoyl]-1-methylsulfanyl-ethyl}-pyrrolidin-1-yl)-2-methoxy-4-oxo-butyl]-methyl-carbamoyl}-2-methyl-propyl)-2-dimethylamino-3-methyl-butyramide] | 0.6 |
| CCC(C)C(C(CC(=O)N1CCCC1C(SC)C(C)C(=O)NCCc1ccccc1)OC)N(C)C(=O)C(NC(=O)C(C(C)C)N(C)C)C(C)C (stereo not drawn) [N-[1-({1-sec-Butyl-2-methoxy-4-[2-(1-methylsulfanyl-2-phenethylcarbamoyl-propyl)-pyrrolidin-1-yl]-4-oxo-butyl}-methyl-carbamoyl)-2-methyl-propyl]-2-dimethylamino-3-methyl-butyramide] | 0.04 |
| CCCCCSC(CC(=O)NCCc1ccccc1)C1CCCN1C(=O)CC(OC)C(C(C)CC)N(C)C(=O)C(NC(=O)C(C(C)C)N(C)C)C(C)C (stereo not drawn) [N-[1-({1-sec-Butyl-2-methoxy-4-oxo-4-[2-(1-pentylsulfanyl-2-phenethylcarbamoyl-ethyl)-pyrrolidin-1-yl]-butyl}-methyl-carbamoyl)-2-methyl-propyl]-2-dimethylamino-3-methyl-butyramide] | 0.75 |
| CCC(C)C(C(CC(=O)N1CCCC1C(CC(=O)NCCc1ccccc1)Sc1ccccc1)OC)N(C)C(=O)C(NC(=O)C(C(C)C)N(C)C)C(C)C (stereo not drawn) [N-[1-({1-sec-Butyl-2-methoxy-4-oxo-4-[2-(2-phenethylcarbamoyl-1-phenylsulfanyl-ethyl)-pyrrolidin-1-yl]-butyl}-methyl-carbamoyl)-2-methyl-propyl]-2-dimethylamino-3-methyl-butyramide] | 0.33 |
| CCC(C)C(C(CC(=O)N1CCCC1[C@@H](CC(=O)NCCc1ccccc1)SC(C)(C)C)OC)N(C)C(=O)C(NC(=O)C(C(C)C)N(C)C)C(C)C (stereo partly drawn) [N-[1-({1-sec-Butyl-4-[2-(1-(R)-tert-butylsulfanyl-2-phenethylcarbamoyl-ethyl)-pyrrolidin-1-yl]-2-methoxy-4-oxo-butyl}-methyl-carbamoyl)-2-methyl-propyl]-2-dimethylamino-3-methyl-butyramide] | 0.04 |
| CCSC(CC(=O)NCCc1ccccc1)C1CCCN1C(=O)CC(OC)C(C(C)CC)N(C)C(=O)C(NC(=O)C(C(C)C)N(C)C)C(C)C (stereo not drawn) [N-[1-({1-sec-Butyl-4-[2-(1-ethylsulfanyl-2-phenethylcarbamoyl-ethyl)-pyrrolidin-1-yl]-2-methoxy-4-oxo-butyl}-methyl-carbamoyl)-2-methyl-propyl]-2-dimethylamino-3-methyl-butyramide] | 0.78 |
| CCSC(CC(=O)NCCc1ccccc1)C1CCCN1C(=O)CC(OC)C(C(C)CC)N(C)C(=O)C(NC(=O)C(NC)C(C)C)C(C)C (stereo not drawn) [N-[1-({1-sec-Butyl-4-[2-(1-ethylsulfanyl-2-phenethylcarbamoyl-ethyl)-pyrrolidin-1-yl]-2-methoxy-4-oxo-butyl}-methyl-carbamoyl)-2-methyl-propyl]-3-methyl-2-methylamino-butyramide] | 0.5 |
| CCC(C)C(C(CC(=O)N1CCCC1C(CC(=O)NCCc1ccccc1)S(C)(=O)=O)OC)N(C)C(=O)C(NC(=O)C(C(C)C)N(C)C)C(C)C (stereo not drawn) [N-[1-({1-sec-Butyl-4-[2-(1-methanesulfonyl-2-phenethylcarbamoyl-ethyl)-pyrrolidin-1-yl]-2-methoxy-4-oxo-butyl}-methyl-carbamoyl)-2-methyl-propyl]-2-dimethylamino-3-methyl-butyramide] | 0.44 |
| CCC(C)C(C(CC(=O)N1CCCC1C(CC(=O)NCCc1ccccc1)SC(C)(C)C)OC)N(C)C(=O)C(NC(=O)C(C(C)C)N(C)C)C(C)C (stereo not drawn) [N-[1-({1-sec-Butyl-4-[2-(1-tert-butylsulfanyl-2-phenethylcarbamoyl-ethyl)-pyrrolidin-1-yl]-2-methoxy-4-oxo-butyl}-methyl-carbamoyl)-2-methyl-propyl]-2-dimethylamino-3-methyl-butyramide] | 0.17 |
| C=CCSC(CC(=O)NCCc1ccccc1)C1CCCN1C(=O)CC(OC)C(C(C)CC)N(C)C(=O)C(NC(=O)C(C(C)C)N(C)C)C(C)C (stereo not drawn) [N-[1-({4-[2-(1-Allylsulfanyl-2-phenethylcarbamoyl-ethyl)-pyrrolidin-1-yl]-1-sec-butyl-2-methoxy-4-oxo-butyl}-methyl-carbamoyl)-2-methyl-propyl]-2-dimethylamino-3-methyl-butyramide] | 0.55 |
| CCC(C)C(C(CC(=O)N1CCCC1C(CC(=O)NCCc1ccccc1)SCc1ccccc1)OC)N(C)C(=O)C(NC(=O)C(C(C)C)N(C)C)C(C)C (stereo not drawn) [N-[1-({4-[2-(1-Benzylsulfanyl-2-phenethylcarbamoyl-ethyl)-pyrrolidin-1-yl]-1-sec-butyl-2-methoxy-4-oxo-butyl}-methyl-carbamoyl)-2-methyl-propyl]-2-dimethylamino-3-methyl-butyramide] | 0.52 |
| CCC(C)C(C(CC(=O)N1CCCC1C(CC(=O)NCCc1ccccn1)SC)OC)N(C)C(=O)C(NC(=O)C(C(C)C)N(C)C)C(C)C (stereo not drawn) [N-{1-[(1-sec-Butyl-2-methoxy-4-{2-[1-methylsulfanyl-2-(2-pyridin-2-yl-ethylcarbamoyl)-ethyl]-pyrrolidin-1-yl}-4-oxo-butyl)-methyl-carbamoyl]-2-methyl-propyl}-2-dimethylamino-3-methyl-butyramide] | 0.9 |

same assay, conditions: incubated 4 days, WST-8; concentration of drug yielding 50% OD of the control growth; read-out: HCT 116 IC50

| Compound | IC50 [nM] |
| --- | --- |
| CCC(C)C(C(CC(=O)N1CCCC1C(SC)C(C)C(=O)NCCc1ccccc1)OC)N(C)C(=O)C(NC(=O)C(NC)C(C)C)C(C)C (stereo not drawn) [N-[-({1-sec-Butyl-2-methoxy-4-[2-(1-methylsulfanyl-2-phenethylcarbamoyl-propyl)-pyrrolidin-1-yl]-4-oxo-butyl}-methyl-carbamoyl)-2-methyl-propyl]-2-methylamino-3 methyl-butyramide] | 1 |
| CCC(C)C(C(CC(=O)N1CCCC1C(CC(=O)NCCc1ccccc1)Sc1ccccc1)OC)N(C)C(=O)C(NC(=O)C(NC)C(C)C)C(C)C (stereo not drawn) [N-[-({1-sec-Butyl-2-methoxy-4-oxo-4-[2-(2-phenethylcarbamoyl-1-phenylsulfanyl-ethyl)-pyrrolidin-1-yl]-butyl}-methyl-carbamoyl)-2-methyl-propyl]-3-methyl-2-methylamino-butyramide] | 0.87 |

From US6737409B2, “Dolastatin 10 derivatives” (Hoffmann-La Roche Inc., priority 2001, dated 2004)
